# Where two headings read alike, the source gives them in different places.
# Experiments:
# [1] = Safety and tolerability in the Phase I hepatic impairment study; assay type: in vivo, human
# From the text: The secondary objectives were: to evaluate the safety and tolerability of a single oral dose of belumosudil in participants with mild, moderate, or severe hepatic impairment, and in healthy participants with normal hepatic function; to assess the PK of the belumosudil metabolites following a single oral dose of belumosudil in participants with mild, moderate, or severe hepatic impairment compared to healthy participants with normal hepatic function. […]
# The secondary/safety endpoints were: incidence and severity of adverse events (AEs), clinical laboratory parameters (hematology, clinical chemistry, coagulation, and urinalysis), 12-lead electrocardiogram (ECG) parameters, vital signs parameters, and physical examinations.
# Treatment-emergent AEs (TEAEs) were summarized by severity and relationship to the investigational medicinal product (IMP). The frequency of TEAEs was summarized by Medical Dictionary for Regulatory Activities system organ class and preferred term, and hepatic function. Summary and frequency TEAE tables were presented for all causalities and for those considered related to the IMP.
# Serum biochemistry, hematology, and coagulation data were summarized by hepatic function. In addition, all serum biochemistry, hematology, and urinalysis data outside the clinical reference ranges were listed by parameter and treatment. Vital signs and ECG data were summarized by hepatic function, together with changes from baseline.
# [2] = cited from earlier work
# [3] = Embryo-fetal developmental study in rabbits; assay type: in vivo; settings: rabbit
# [4] = test system: CYP1A2; settings: role: inhibitor; in vitro; cited from earlier work
# [5] = test system: CYP2C8; settings: role: substrate; in vitro; cited from earlier work
# [6] = pregnant rabbits, cited from earlier work
# [7] = dogs; cited from earlier work
# [8] = Changes in belumosudil exposure in subjects with hepatic impairment compared to subjects with normal hepatic function; assay type: in vivo, human; settings: single 200 mg
# [9] = 200 and 400 mg; cited from earlier work
# [10] = test system: CYP2C19; settings: role: inhibitor; in vitro; cited from earlier work
# [11] = test system: P-gp; settings: role: inhibitor; clinically relevant concentrations, in vitro; cited from earlier work
# [12] = pregnant rats, cited from earlier work
# [13] = test system: pro-fibrotic signaling; settings: in vitro; cited from earlier work
# [14] = moderate hepatic impairment group
# [15] = healthy subjects, coadministered omeprazole
# [16] = healthy subjects, coadministered rabeprazole
# [17] = healthy subjects, coadministered rifampin
# [18] = moderate (Child-Pugh B) vs normal
# [19] = severe (Child-Pugh C) vs normal
smiles,measurement,setting,value
"CC(C)NC(=O)COc1cccc(-c2nc(Nc3ccc4[nH]ncc4c3)c3ccccc3n2)c1 [belumosudil, 2-{3-[4-(1H-indazol-5-ylamino)-2-quinazolinyl]phenoxy}-N-(propan-2-yl) acetamide]",12-lead ECG parameters,[1]; individual participants,no clinically significant changes
same,vital signs parameters,[1]; individual participants,no clinically significant changes
same,number of SAEs,[1]; [14],1
same,number of TEAEs,[1]; [14],2 TEAEs
same,participants reporting TEAEs,"[1]; moderate hepatic impairment group, 1 participant",12.5%
same,AEs related to study drug,[1]; single oral 200 mg,no reports of AEs related to study drug
same,deaths,[1]; single oral 200 mg,no reports of deaths
same,discontinuation due to an AE,[1]; single oral 200 mg,no participants discontinued due to an AE
same,"clinical chemistry, hematology, coagulation, or urinalysis",[1]; throughout the study,no clinically significant changes
same,physical examinations,[1]; throughout the study,no clinically significant findings
same,effect of proton pump inhibitors on belumosudil exposure,[2]; coadministered proton pump inhibitors,decreases belumosudil exposure
same,effect of strong CYP3A inducers on belumosudil exposure,[2]; coadministered strong CYP3A inducers,decreases belumosudil exposure
same,effect of itraconazole on belumosudil exposure,"[2]; healthy subjects, coadministered itraconazole",no clinically meaningful effect on belumosudil exposure
same,decrease in belumosudil AUC,[2]; [15],47%
same,decrease in belumosudil Cmax,[2]; [15],68%
same,decrease in belumosudil AUC,[2]; [16],80%
same,decrease in belumosudil Cmax,[2]; [16],87%
same,decrease in belumosudil AUC,[2]; [17],72%
same,decrease in belumosudil Cmax,[2]; [17],59%
same,maternal exposure (AUC) multiple of human exposure with adverse developmental outcomes,[3],≥ 0.07 times the human exposure
same,CYP1A2 inhibition,[4],inhibitor
same,metabolism by CYP2C8,[5],to a lesser extent
same,doses with maternal toxicity (body weight loss and mortality),[6]; oral,≥ 125 mg/kg/day
same,doses with embryo-fetal effects,"[6]; oral, spontaneous abortion, post-implantation loss, malformations, decreased fetal weight",≥ 50 mg/kg/day
same,maternal exposure (AUC) causing embryo-fetal mortality and malformations vs patients,[6]; organogenesis,less than those in patients at the recommended dose
same,dose with spermatozoa degeneration,[7],35 mg/kg/day
same,"AUC change, free concentrations: decrease",[8]; mild (Child-Pugh A) vs normal,19%
same,"AUC change, total (free + bound): increase",[8]; mild (Child-Pugh A) vs normal,1.4-fold
same,"Cmax change, free concentrations: decrease",[8]; mild (Child-Pugh A) vs normal,14%
same,"Cmax change, total (free + bound): increase",[8]; mild (Child-Pugh A) vs normal,1.2-fold
same,"AUC change, free concentrations: increase",[8]; [18],1.4-fold
same,"AUC change, total (free + bound): increase",[8]; [18],1.5-fold
same,"Cmax change, free concentrations: decrease",[8]; [18],12%
same,"Cmax change, total (free + bound): decrease",[8]; [18],6%
same,"AUC change, free concentrations: increase",[8]; [19],16-fold
same,"AUC change, total (free + bound): increase",[8]; [19],4.2-fold
same,"Cmax change, free concentrations: increase",[8]; [19],5.4-fold
same,"Cmax change, total (free + bound): increase",[8]; [19],1.3-fold
same,dose proportionality of Cmax and AUC,[9],increased in an approximately proportional manner
same,CYP2C19 inhibition,[10],inhibitor
same,P-gp inhibition,[11],inhibits
same,doses with fetal malformations,"[12]; oral, pilot study, absence of anus and tail, omphalocele, dome shaped head",≥ 50 mg/kg/day
same,maternal exposure (AUC) causing embryo-fetal mortality and malformations vs patients,[12]; organogenesis,less than those in patients at the recommended dose
same,aberrant pro-fibrotic signaling,[13],inhibits aberrant pro-fibrotic signaling
